From ChEMBL document CHEMBL3046791, “Design and synthesis of 2-quinolones as antioxidants and antimicrobials: a rational approach” (Med Chem Res, 2010) come the findings set out here.

In general, logP refers to a log measure of how a compound divides between an organic and an aqueous phase. Lower therefore signals a more hydrophilic compound.

SMILES strings stand for the structures.

The subject of data set [1] is Bacillus subtilis. Nature of the data set: Antibacterial activity against Bacillus subtilis at 500 ug/0.1 mL after 24 hr by agar diffusion method. The class given is functional.
The nature of data set [2]: Partition coefficient, log P of the compound. The following applies: octanol/water. In kind it is physicochemical.
Data set [3] concerns Staphylococcus aureus. The data set can be described thus: Antibacterial activity against Staphylococcus aureus at 500 ug/0.1 mL after 24 hr by agar diffusion method. The class given is functional. (Agar diffusion results depend on both activity and mobility in agar.)
Data set [4] concerns Escherichia coli. The data set can be described thus: Antibacterial activity against Escherichia coli at 500 ug/0.1 mL after 24 hr by agar diffusion method. In kind it is functional.
Data set [5] has as its system Pseudomonas aeruginosa. Nature of the data set: Antibacterial activity against Pseudomonas aeruginosa at 500 ug/0.1 mL after 24 hr by agar diffusion method. In kind it is functional.
The test system of data set [6] is Escherichia coli. The data set can be described thus: Antibacterial activity against Escherichia coli at 10 ug/0.1 mL after 24 hr by agar diffusion method. The class given is functional.
In data set [7] the test system is Staphylococcus aureus. The data set can be described thus: Antibacterial activity against Staphylococcus aureus at 10 ug/0.1 mL after 24 hr by agar diffusion method. In kind it is functional.
The subject of data set [8] is Pseudomonas aeruginosa. Nature of the data set: Antibacterial activity against Pseudomonas aeruginosa at 10 ug/0.1 mL after 24 hr by agar diffusion method. In kind it is functional.
Data set [9] has as its system Bacillus subtilis. Nature of the data set: Antibacterial activity against Bacillus subtilis at 10 ug/0.1 mL after 24 hr by agar diffusion method. In kind it is functional.

For `CC(=O)Nc1ccc2c(C)cc(=O)[nH]c2c1`, the “inhibition zone (IZ)” value in data set [1] is 13 mm; in [3] it was 11 mm. In data set [2], the logP is 0.995.

As for `Cc1cc(=O)[nH]c2cc(NC(=O)c3ccc(Cl)cc3Cl)ccc12`, the “inhibition zone (IZ)” value in data set [4] was determined as 9 mm. In data set [2], this compound registered a log partition coefficient (logP) of 1.83.

As for `Cc1cc(=O)[nH]c2cc(NC(=O)c3ccc(F)cc3)ccc12`, the “inhibition zone (IZ)” value was 12 mm in data set [1] and 11 mm in data set [3]. In addition, in data set [2], the logP was 1.61.

For the compound `Cc1cc(=O)[nH]c2cc(NC(=O)c3c(Br)cccc3Br)ccc12`, the “inhibition zone (IZ)” value in data set [1] and in data set [3] was 12 mm throughout. The compound also came in with a logP in data set [2] of 1.75.

As for `Cc1cc(=O)[nH]c2cc(NC(=O)c3ccc([N+](=O)[O-])cc3)ccc12`, the results for the “inhibition zone (IZ)” value in [4] and in [5] were 11 mm and 9 mm, respectively. The logP in [2] was found to be 1.63.

Regarding `Cc1cc(=O)[nH]c2cc(NC(=O)c3c([N+](=O)[O-])cccc3[N+](=O)[O-])ccc12`, the “inhibition zone (IZ)” value in data set [4] is listed as 13 mm; in [1], 12.5 mm; in [5], 10 mm. In data set [2], this compound gave a logP of 1.82.

Take `Cc1ccccc1C(=O)Nc1ccc2c(C)cc(=O)[nH]c2c1`: the “inhibition zone (IZ)” value in data set [1] is 12 mm; in data set [3] it was 10 mm. Besides, in data set [2], the log partition coefficient (logP) turned out to be 1.71.

Take `Cc1ccc(C(=O)Nc2ccc3c(C)cc(=O)[nH]c3c2)cc1`: the “inhibition zone (IZ)” value came out at 13 mm in [4] and 10 mm in [5]. Also, in data set [2], the lipophilicity (logP) was found to be 1.67.

Consider `COc1ccc(C(=O)Nc2ccc3c(C)cc(=O)[nH]c3c2)cc1OC`, for which the “inhibition zone (IZ)” value in data set [4] came to 15 mm; in data set [1] it was 13 mm; in data set [3] it was 16 mm. Further, the log partition coefficient (logP) in data set [2] stood at 1.46.

For the compound `Cc1cc(=O)[nH]c2cc(NC(=O)c3cccc4ccccc34)ccc12`, the “inhibition zone (IZ)” value in [4] is 11 mm; in data set [1] it was 13 mm. The compound also came in with a logP in data set [2] of 1.72.

On to `Cc1cc(=O)[nH]c2cc(NC(=O)/C=C/c3ccccc3)ccc12`, for which the “inhibition zone (IZ)” value stood at 12 mm in data set [4] and 11 mm in [1]. In data set [2], this compound registered a logP of 1.69.

`Cc1cc(=O)[nH]c2cc(NC(=O)c3ccccc3)ccc12`: the entries for the “inhibition zone (IZ)” value in [1] and in [5] were 12 mm and 11 mm, respectively. In addition, the log partition coefficient (logP) in data set [2] worked out at 1.66.

In the case of `Cc1cc(=O)[nH]c2cc(NC(=O)c3ccccc3Cl)ccc12`, in data set [1], the “inhibition zone (IZ)” value worked out at 10.5 mm. For the same compound, the logP in data set [2] was found to be 1.55.

As for `Cc1cc(=O)[nH]c2cc(NC(=O)c3cccc(Cl)c3)ccc12`, the logP in data set [2] stood at 1.69.

For `Cc1cc(=O)[nH]c2cc(NC(=O)c3ccc(Cl)cc3)ccc12`, the “inhibition zone (IZ)” value in data set [4] is on record as 9 mm. Besides, in data set [2], the logP worked out at 1.69.

For the compound `Cc1cc(O)nc2cc(N)ccc12`, the “inhibition zone (IZ)” value is reported as 10 mm in data set [4], 10 mm in data set [1], 11 mm in data set [3] and 11 mm in data set [5]. Also, in data set [2], the lipophilicity (logP) amounted to 0.793.

Turning to `CC1(C)S[C@@H]2[C@H](NC(=O)[C@H](N)c3ccc(O)cc3)C(=O)N2[C@H]1C(=O)O` [AMOXICILLIN], the “inhibition zone (IZ)” value came out at 23 mm in data set [6], 30 mm in data set [7], 26 mm in data set [8] and 34 mm in [9].
